Where “and” joins values, the source holds several entries; their conditions need not be identical. Equal entries are not always repeated.
System: 628569-122-R-J1-PDC complex spheroid viability
Test: Anticancer human tumor 628569-122-R-J1-PDC patient-derived head and neck squamous carcinoma cell line growth inhibition [CLK]
Conditions: for viability, T/C: stronger effect = lower value
Procedure, shortened: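 Patient-derived tumor cells grown as complex spheroids with HUVEC endothelial cells and mesenchymal stem cells, treated with drug combinations. Concentrations descend in half-log steps from near clinical Cmax, or from 10 microM if Cmax unknown.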

[1] = curve of first compound, second compound 0.0316 µM
[2] = curve of first compound, second compound 0.1 µM
[3] = curve of first compound, second compound 0.316 µM
[4] = curve of first compound, second compound 1 µM
[5] = curve of first compound, second compound 3.16 µM
[6] = curve of first compound, second compound 10 µM
[7] = second compound 0.0316 µM, first compound 0.0316 µM
[8] = second compound 0.0316 µM, first compound 0.1 µM
[9] = second compound 0.0316 µM, first compound 0.316 µM
[10] = second compound 0.0316 µM, first compound 1 µM
[11] = second compound 0.0316 µM, first compound 3.16 µM
[12] = second compound 0.0316 µM, first compound 10 µM
[13] = second compound 0.1 µM, first compound 0.0316 µM
[14] = second compound 0.1 µM, first compound 0.1 µM
[15] = second compound 0.1 µM, first compound 0.316 µM
[16] = second compound 0.1 µM, first compound 1 µM
[17] = second compound 0.1 µM, first compound 3.16 µM
[18] = second compound 0.1 µM, first compound 10 µM
[19] = second compound 0.316 µM, first compound 0.0316 µM
[20] = second compound 0.316 µM, first compound 0.1 µM
[21] = second compound 0.316 µM, first compound 0.316 µM
[22] = second compound 0.316 µM, first compound 1 µM
[23] = second compound 0.316 µM, first compound 3.16 µM
[24] = second compound 0.316 µM, first compound 10 µM
[25] = second compound 1 µM, first compound 0.0316 µM
[26] = second compound 1 µM, first compound 0.1 µM
[27] = second compound 1 µM, first compound 0.316 µM
[28] = second compound 1 µM, first compound 1 µM
[29] = second compound 1 µM, first compound 3.16 µM
[30] = second compound 1 µM, first compound 10 µM
[31] = second compound 3.16 µM, first compound 0.0316 µM
[32] = second compound 3.16 µM, first compound 0.1 µM
[33] = second compound 3.16 µM, first compound 0.316 µM
[34] = second compound 3.16 µM, first compound 1 µM
[35] = second compound 3.16 µM, first compound 3.16 µM
[36] = second compound 3.16 µM, first compound 10 µM
[37] = second compound 10 µM, first compound 0.0316 µM
[38] = second compound 10 µM, first compound 0.1 µM
[39] = second compound 10 µM, first compound 0.316 µM
[40] = second compound 10 µM, first compound 1 µM
[41] = second compound 10 µM, first compound 3.16 µM
[42] = second compound 10 µM, first compound 10 µM
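Also: spheroids exposed to agents for seven days before readout.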
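For viability, T/C in this document: 100% = DMSO vehicle control viability.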

**Q.** Which IC50 [1] does the source give for `C=C(F)C(=O)N1CCN(c2nc(OCC3CCCN3C)nc3c2CCN(c2cccc4cccc(Cl)c24)C3)CC1CC#N` (stereo not drawn) + CNC(=O)c1ccc(Nc2nc(OC3CCCC3)c3c(-c4ccc5nc(C)oc5c4)c[nH]c3n2)c(OC)c1 here?
**A.** 5890 nM

**Q.** What about the IC50 [2] of the same compound?
**A.** 4250 nM

**Q.** What about the IC50 [3] of the same compound?
**A.** 3640 nM

**Q.** What about the IC50 [4] of the same compound?
**A.** 31.6 nM

**Q.** And the IC50 [5]?
**A.** < 31.6 nM

**Q.** And the IC50 [6]?
**A.** < 31.6 nM

**Q.** And the viability, T/C [7]?
**A.** 84.5%

**Q.** And the viability, T/C [8]?
**A.** 85.8%

**Q.** And the viability, T/C [9]?
**A.** 88.8%

**Q.** What about the viability, T/C [10] of the same compound?
**A.** 112%

**Q.** What about the viability, T/C [11] of the same compound?
**A.** 126%

**Q.** And the viability, T/C [12]?
**A.** 8.03%

**Q.** What about the viability, T/C [13] of the same compound?
**A.** 58.8%

**Q.** What about the viability, T/C [14] of the same compound?
**A.** 53.8%

**Q.** What about the viability, T/C [15] of the same compound?
**A.** 65.5%

**Q.** And the viability, T/C [16]?
**A.** 64%

**Q.** And the viability, T/C [17]?
**A.** 90.2%

**Q.** What about the viability, T/C [18] of the same compound?
**A.** 1.94%

**Q.** And the viability, T/C [19]?
**A.** 54.6%

**Q.** What about the viability, T/C [20] of the same compound?
**A.** 47.9%

**Q.** And the viability, T/C [21]?
**A.** 49.3%

**Q.** And the viability, T/C [22]?
**A.** 56.3%

**Q.** And the viability, T/C [23]?
**A.** 72.1%

**Q.** What about the viability, T/C [24] of the same compound?
**A.** 6.63%

**Q.** What about the viability, T/C [25] of the same compound?
**A.** 46.5%

**Q.** And the viability, T/C [26]?
**A.** 42.9%

**Q.** And the viability, T/C [27]?
**A.** 43.7%

**Q.** And the viability, T/C [28]?
**A.** 49%

**Q.** And the viability, T/C [29]?
**A.** 62.8%

**Q.** What about the viability, T/C [30] of the same compound?
**A.** 1.4%

**Q.** What about the viability, T/C [31] of the same compound?
**A.** 46.2%

**Q.** What about the viability, T/C [32] of the same compound?
**A.** 43.3%

**Q.** What about the viability, T/C [33] of the same compound?
**A.** 45.4%

**Q.** And the viability, T/C [34]?
**A.** 51.5%

**Q.** What about the viability, T/C [35] of the same compound?
**A.** 48.1%

**Q.** What about the viability, T/C [36] of the same compound?
**A.** 0.86%

**Q.** And the viability, T/C [37]?
**A.** 53.9%

**Q.** And the viability, T/C [38]?
**A.** 36.1%

**Q.** And the viability, T/C [39]?
**A.** 46.7%

**Q.** What about the viability, T/C [40] of the same compound?
**A.** 54.5%

**Q.** And the viability, T/C [41]?
**A.** 43.8%

**Q.** What about the viability, T/C [42] of the same compound?
**A.** 5.33%

**Q.** Which IC50 [1] does the source give for `CC(Nc1ccc2c(c1)OCCn1cc(N3C(=O)OCC3C(F)F)nc1-2)C(N)=O` (stereo not drawn) + CNC(=O)c1ccc(Nc2nc(OC3CCCC3)c3c(-c4ccc5nc(C)oc5c4)c[nH]c3n2)c(OC)c1 here?
**A.** 269 nM

**Q.** What about the IC50 [2] of the same compound?
**A.** 31.7 nM

**Q.** What about the IC50 [3] of the same compound?
**A.** < 31.6 nM

**Q.** And the IC50 [4]?
**A.** < 31.6 nM

**Q.** What about the IC50 [5] of the same compound?
**A.** < 31.6 nM

**Q.** And the IC50 [6]?
**A.** < 31.6 nM

**Q.** What about the viability, T/C [7] of the same compound?
**A.** 67.3%

**Q.** What about the viability, T/C [8] of the same compound?
**A.** 61.1%

**Q.** And the viability, T/C [9]?
**A.** 48.2%

**Q.** What about the viability, T/C [10] of the same compound?
**A.** 34.2%

**Q.** What about the viability, T/C [11] of the same compound?
**A.** 41.8%

**Q.** And the viability, T/C [12]?
**A.** 26.5%

**Q.** What about the viability, T/C [13] of the same compound?
**A.** 55.7%

**Q.** What about the viability, T/C [14] of the same compound?
**A.** 38.5%

**Q.** And the viability, T/C [15]?
**A.** 31.9%

**Q.** What about the viability, T/C [16] of the same compound?
**A.** 40.5%

**Q.** And the viability, T/C [17]?
**A.** 38.2%

**Q.** What about the viability, T/C [18] of the same compound?
**A.** 17.7%

**Q.** What about the viability, T/C [19] of the same compound?
**A.** 41%

**Q.** What about the viability, T/C [20] of the same compound?
**A.** 44.8%

**Q.** What about the viability, T/C [21] of the same compound?
**A.** 36.5%

**Q.** What about the viability, T/C [22] of the same compound?
**A.** 43.1%

**Q.** And the viability, T/C [23]?
**A.** 32.3%

**Q.** And the viability, T/C [24]?
**A.** 16.9%

**Q.** What about the viability, T/C [25] of the same compound?
**A.** 39.5%

**Q.** What about the viability, T/C [26] of the same compound?
**A.** 32.6%

**Q.** What about the viability, T/C [27] of the same compound?
**A.** 29.6%

**Q.** What about the viability, T/C [28] of the same compound?
**A.** 27.5%

**Q.** And the viability, T/C [29]?
**A.** 23.4%

**Q.** What about the viability, T/C [30] of the same compound?
**A.** 13.5%

**Q.** And the viability, T/C [31]?
**A.** 37.1%

**Q.** And the viability, T/C [32]?
**A.** 31.7%

**Q.** What about the viability, T/C [33] of the same compound?
**A.** 26.8%

**Q.** What about the viability, T/C [34] of the same compound?
**A.** 22.2%

**Q.** And the viability, T/C [35]?
**A.** 20.8%

**Q.** And the viability, T/C [36]?
**A.** 16.3%

**Q.** And the viability, T/C [37]?
**A.** 34.7%

**Q.** What about the viability, T/C [38] of the same compound?
**A.** 28.2%

**Q.** What about the viability, T/C [39] of the same compound?
**A.** 26.5%

**Q.** And the viability, T/C [40]?
**A.** 25.9%

**Q.** What about the viability, T/C [41] of the same compound?
**A.** 23.2%

**Q.** And the viability, T/C [42]?
**A.** 13.2%

**Q.** How did the viability, T/C (compound 0.0316 µM) turn out when `Nc1ccn(C2OC(CO)C(O)C2(F)F)c(=O)n1` (stereo not drawn) was run?
**A.** 56.4% and 64.8%

**Q.** And the viability, T/C (compound 0.1 µM)?
**A.** 48.9% and 39.6%

**Q.** And the viability, T/C (compound 0.316 µM)?
**A.** 59% and 51.7%

**Q.** And the viability, T/C (compound 1 µM)?
**A.** 42.4% and 32.9%

**Q.** And the viability, T/C (compound 3.16 µM)?
**A.** 49.2% and 40.4%

**Q.** And the viability, T/C (compound 10 µM)?
**A.** 45.5% and 42%

**Q.** And the IC50 (curve of compound)?
**A.** 626 nM and 65.4 nM

**Q.** Which viability, T/C (compound 0.0316 µM) does the source give for `CC1COCCN1c1cc(C2(S(C)(=N)=O)CC2)nc(-c2ccnc3[nH]ccc23)n1` (stereo not drawn) here?
**A.** 106% and 94.9%

**Q.** And the viability, T/C (compound 0.1 µM)?
**A.** 89.1% and 89.6%

**Q.** And the viability, T/C (compound 0.316 µM)?
**A.** 102% and 68.9%

**Q.** What about the viability, T/C (compound 1 µM) of the same compound?
**A.** 65.9% and 50.8%

**Q.** And the viability, T/C (compound 3.16 µM)?
**A.** 42.5% and 40.7%

**Q.** What about the viability, T/C (compound 10 µM) of the same compound?
**A.** 33.7% and 33.3%

**Q.** What about the IC50 (curve of compound) of the same compound?
**A.** 1930 nM and 1080 nM

Reference: PubChem BioAssay AID2060611 (Molecular Pharmacology Branch, DTP, NCI, 2025)
